Experimental data taken from paper PMC12162873, “Modulating phosphatase DUSP22 with BML-260 ameliorates skeletal muscle wasting via Akt independent JNK-FOXO3a repression” (EMBO Molecular Medicine, 2025).
Where “and” joins values, the source holds several entries; their conditions need not be identical. Identical values can stand only once.

How the values were obtained:
C2C12 murine myotubes = assay: RNA Seq of DUSP22 expression in Dex-treated C2C12 myotubes; type: cell-based, mouse; settings: C2C12 myotubes treated with Dex, three clusters of n = 3, replicates
Method: (A) DUSP22 expression in aged individuals (over 70 years, n = 15) and aged individuals diagnosed with sarcopenia (over 70 years, n = 18), p = 0.0009 (obtained from the Singapore Sarcopenia Study; (GEO accession no. GSE111016 (Migliavacca et al, [2019])). (B) DUSP22 expression in C2C12 murine myotubes treated with vehicle or dexamethasone (Dex) to induce atrophy (n = 3 each) Custer 1 (p = 0.024), Cluster 2 (p = 0.13), Cluster 3 (p = 0.0246). Expression was measured using RNA Seq. TPM=transcript per million. (C) qPCR analysis of DUSP22 expression in four models of muscle atrophy: (1) C2C12 myotubes treated with Dex (n = 5), p = 7.67E−05, (2) the TA muscle of C57BL/6 mice treated with Dex (n = 4), p = 0.09, (3) the TA muscle of young (5 months-old, n = 9) and geriatric (27 months-old, n = 8) C57BL/6 mice, p = 0.0324, (4) the TA of C57BL/6 mice after hind limb immobilization (n = 3), p = 0.018. (D) qPCR of DUSP22 expression in C2C12 myoblasts transfected with a DUSP22 CRISPR activation plasmid (DUSP22^endoOE) or control plasmid (CON^endoOE) (n = 3), p = 0.0022. (E) Fast myosin (MYH2) immunocytochemistry of CON^endoOE and DUSP22^endoOE myoblasts after 96 h culture in DM (scale bar = 100 µm). (F) Fusion index (n = 6). (G) Differentiation index (n = 6), p = 9.91E−09. […]

C57BL/6 mice = assay: Hind limb immobilization model, BML-260 treatment; type: in vivo, mouse
Method: Western blotting was carried out using the previously published protocol (Lee et al, [2020]). The NIH imaging software Image J 64 was used for densitometry analysis of the gel bands. The primary and secondary antibodies used in this study are shown in the reagent and tools table. Chemiluminescence was used to detect the secondary antibody.
To immobilize the hind limbs, 14-week-old male C57BL/6 mice were anesthetized with isoflurane and both hind limbs were fixed with plastic EP-tubes (Axygen, MCT-175-C). To prevent the tubes from slipping, the junction between the tubes and the hind limbs were wrapped with insulating tape. BML-260 was treated as follows: (1) vehicle alone (5% DMSO + 5% tween 80) and (2) 5 mg/kg BML-260 (n = 3 per group). The mice were monitored daily and sacrificed after 14 days.
Mice were anesthetized using ketamine (22 mg/kg; Yuhan, Republic of Korea) and xylazine (10 mg/kg; Bayer, Republic of Korea) in saline by IP injection. The quadriceps, gastrocnemius, soleus and TA muscles were then dissected and weighed. For histological analysis, the muscles were fixed by overnight incubation with 4% paraformaldehyde in PBS pH 7.4 at 4 °C. Paraffin sectioning and H&E staining were provided by the Animal Housing Facility, Gwangju Institute of Science and Technology, Republic of Korea (5 µm muscle sections using a Thermo Scientific HistoStar (Thermofisher). H&E staining was carried out with a kit (Merck, Germany)). For immunohistochemistry, TA muscle sections were permeabilized for 15 min (PBS with 0.5% Triton X-100), blocked for 1 h (5% BSA) and incubated with the primary antibody overnight at 4 °C (a list of primary and secondary antibodies used in this study are provided in Appendix Tables S4 and S5, respectively). After washing with PBS 3 times for 5 min, the sections were incubated with the secondary antibody at RT for 1 h. The nuclei were counterstained with DAPI in ProLong™ Gold Antifade Mountant (Invitrogen, P36935). Digital images were acquired with Leica DM 2500 (Leica Microsystems). Cross sectional area (CSA) and fiber size distribution was measured using the NIH imaging software Image J 64. To CSA and size distribution of different fiber types was calculated in 4 muscle section as follows: type 2 A: 30–40 fibers measured; type 2B: at least 100 fibers measured; type 2X: 30–40 fibers measured.

[1] = 5 mg/kg BML-260, 14 days immobilization
[2] = TA of immobilized mice (Fig EV4), Sham average = 1
[3] = TA of immobilized mice (Fig EV4), Sham average = 1, individual animals

| SMILES | DUSP22 expression, RNA Seq (C2C12 murine myotubes) | DUSP22 levels in TA and gastrocnemius muscles, western blot (C57BL/6 mice; [1]) | MYH4 (myosin heavy chain 2B) in TA muscle, western blot (C57BL/6 mice; [1]) | atrogin-1 and MuRF-1 expression in immobilized TA, western blot (C57BL/6 mice; [1]) | phosphorylation level of JNK in TA muscle, western blot (C57BL/6 mice; [1]) | DUSP22, western blot quantification, Average (C57BL/6 mice; SHAM average = 1) | DUSP22, western blot quantification (C57BL/6 mice; SHAM average = 1, individual animals) | DUSP22, western blot quantification, Average (C57BL/6 mice; TA muscle of immobilized mice (Fig EV5), Sham average = 1) | DUSP22, western blot quantification (C57BL/6 mice; TA muscle of immobilized mice (Fig EV5), Sham average = 1, individual animals) | p-jnk/jnk, western blot quantification, Average (C57BL/6 mice; TA muscle of immobilized mice, Sham average = 1) | p-jnk/jnk, western blot quantification (C57BL/6 mice; TA muscle of immobilized mice, Sham average = 1, individual animals) | DUSP22, western blot quantification, Average (C57BL/6 mice; [2]) | MYH4, western blot quantification, Average (C57BL/6 mice; [2]) | DUSP22, western blot quantification (C57BL/6 mice; [3]) | MYH4, western blot quantification (C57BL/6 mice; [3]) |
| --- | --- | --- | --- | --- | --- | --- | --- | --- | --- | --- | --- | --- | --- | --- | --- |
| C[C@@H]1C[C@H]2[C@@H]3CCC4=CC(=O)C=C[C@]4(C)[C@@]3(F)[C@@H](O)C[C@]2(C)[C@@]1(O)C(=O)CO [Dex, dexamethasone] | 18.5715 TPM and 15.8769 TPM and 15.1133 TPM and 25.7965 TPM and 17.3247 TPM and 20.9604 TPM and 20.6804 TPM and 15.7123 TPM and 15.7246 TPM | – | – | – | – | – | – | – | – | – | – | – | – | – | – |
| O=C(O)c1ccc(N2C(=O)C(=Cc3ccccc3)SC2=S)cc1 (stereo in doubt) [BML-260] | – | reduced DUSP22 levels | upregulation | downregulated | reduction | 0.5293 | 0.9793 and 0.6244 and 0.3303 and 0.3563 and 0.317 and 0.5687 | 1.168 | 1.324 and 0.9536 and 0.9932 and 1.399 | 0.4787 | 0.7134 and 0.5569 and 0.2233 and 0.4213 | 1.587 | 0.928 | 1.411 and 2.335 and 2.043 and 0.8602 and 1.621 and 1.251 | 1.0151 and 0.5864 and 0.9197 and 0.796 and 1.189 and 1.062 |
